These results are taken from publication PMC9986244, “Connection between MHC class II binding and aggregation propensity: The antigenic peptide 10 of Paracoccidioides brasiliensis as a benchmark study” (Computational and Structural Biotechnology Journal, 2023).

In one assay the target is MHC-II allele DRB1*01:01 (Homo sapiens, UniProt P01903+P01911, A100R/D57E/F55L/F60I/F76Y/I96L/L162R/M171V/P40L/Q125E/R42F/V115G/Y59C). It is filed as binding.
Conditions: not given
On to QTLIAIHTLAIRYAN [Peptide P10], for which the “Affinity for MHC-II (subfamily by experimental affinity scores)” value (from here on “Affinity for MHC-II”) is reported as “high affinity”.

The same assay, now with this note: DRB1*01:01; SF-high / SF-low assigned from REVEAL scores.
For QTLLDIHTLAIRYAN [Peptide V1], the “Affinity for MHC-II” value is “low affinity”.
On the same count and under the same terms, to QPFPDIHTLAIRYAN [Peptide V3] belongs “low affinity”; to QGLPAIHTLAIRYAN [Peptide V7], “low affinity”; to QTLTAIHTLAIRYAN [Peptide V6], “high affinity”.
The same measure, in the same setting: to QMLHAIHTLAIRYAN [Peptide V16] belongs “high affinity”; to QGLKAIHTLAIRYAN [Peptide V10], “high affinity”; to QTLQAIHTLAIRLAN [Peptide V11], “high affinity”.
Regarding QNHHAIHTLAIRYAN [Peptide V15], the “Affinity for MHC-II” value was “low affinity”.
Still for that read-out and setting: to QTYHAIHTLAIRYAN [Peptide V14] belongs “high affinity”; to QPFQDIHTLAIRYAN [Peptide V5], “low affinity”.
